IC50 data for eight molecules are collected here from ChEMBL document CHEMBL1165884, “Microwave-assisted synthesis and in-vitro anti-tumor activity of 1,3,4-triaryl-5-N-arylpyrazole-carboxamides” (Eur J Med Chem, 2010).

Assay [1] deals with Caco-2. The experiment in a line: Cytotoxicity against human Caco-2 cells after 48 hrs. Particulars: Caco-2, 48 h.
For assay [2], the system named is HEp-2. The experiment in a line: Cytotoxicity against human Hep2 cells after 48 hrs. Particulars: HEp-2, 48 h.

Molecules are shown by their SMILES. ≈ marks a conversion by molar mass, not a printed value.

Take `Cc1ccc(NC(=O)c2c(-c3ccccc3)c(-c3ccccc3)nn2-c2ccccc2)cc1`: the values for the 50% inhibitory concentration (IC50) in assay [1] and in assay [2] were 2.21 µg/mL (≈ 5.15 µM) and 1.21 µg/mL (≈ 2.82 µM), respectively.
For `Cc1ccc(NC(=O)c2c(-c3ccc(Cl)cc3)c(-c3ccccc3)nn2-c2ccccc2)cc1`, in that order: 1.54 µg/mL (≈ 3.32 µM) and 0.81 µg/mL (≈ 1.75 µM).
For `O=C(c1c(-c2ccc(Cl)cc2)c(-c2ccccc2)nn1-c1ccccc1)n1c(=S)[nH]c2ccccc21`, in that order: 3.29 µg/mL (≈ 6.49 µM) and 1.54 µg/mL (≈ 3.04 µM).
For `O=C(Nc1ccccc1)c1c(-c2ccccc2)c(-c2ccccc2)nn1-c1ccccc1`, in that order: 1.68 µg/mL (≈ 4.04 µM) and 1.5 µg/mL (≈ 3.61 µM).
On to `O=C(c1c(-c2ccccc2)c(-c2ccccc2)nn1-c1ccccc1)n1c(=S)[nH]c2ccccc21`, for which the figures for the IC50 in assay [1] and in assay [2] were 1.48 µg/mL (≈ 3.13 µM) and 7.18 µg/mL (≈ 15.2 µM), respectively.
For `O=C(Nc1ccccc1)c1c(-c2ccc(Cl)cc2)c(-c2ccccc2)nn1-c1ccccc1`, in that order: 1.74 µg/mL (≈ 3.87 µM) and 0.74 µg/mL (≈ 1.64 µM).
As to `Cc1ccc(NC(=O)c2c(-c3ccccc3)c(-c3ccc(Cl)cc3)nn2-c2ccccc2)cc1`, the IC50 came out at 0.67 µg/mL (≈ 1.44 µM) in assay [1] and 1.21 µg/mL (≈ 2.61 µM) in assay [2].
For `COc1cccc2c1C(=O)c1c(O)c3c(c(O)c1C2=O)C[C@@](O)(C(=O)CO)C[C@@H]3O[C@H]1C[C@H](N)[C@H](O)[C@H](C)O1` [DOXORUBICIN] the same measures were 1 µg/mL (≈ 1.84 µM) and 0.4 µg/mL (≈ 0.736 µM).

By IC50 is commonly meant the midpoint of a concentration-inhibition curve. Low values mean greater potency in that assay, high ones weaker potency in that assay.
